“Also recorded” adds a separate entry of the source.
Columns and labels:
[1] = Hygroscopicity of HMB salts; format: physicochemical
pig red blood cells = assay: Pig red blood cell antibody titer in chicks (microtiter agglutination test); format: in vivo, chicks (male leghorn); details: 0.04% of the diet, 5 weeks; for Red blood cell titer, change from control: ** (HMB) significant at p < .02; for Red blood cell titer: pig red blood cells injected week 2, control 1.57
Experimental: (§1) To compare KIC and HMB as growth promotants, young male leghorn chicks were allotted to 12 battery (wire mess floors) pens consisting of 10 birds each. Treatments of control, HMB (0.04% of the diet) and KIC (0.04% of the diet) were assigned to the pens. Feed consumption was measured during the 5 week experiment. During week 2 of the experiment chicks were injected with 50 ul of a 20% suspension of pig red blood cells intraperitoneally.
(§2) Chicks were fed a diet adequate in all nutrients for leghorns of this age. HMB was a supplement to this diet at 0.04% of the diet (w/w).
(§3) At the end of the 5 week experiment chicks were decapitated and serum collected for pig red blood cells antibody titer determination. Titers to red blood cells were evaluated by a microtiter agglutination test (Kuhlman, et al.). Also, the Pectoralis major muscle (the major breast muscle) was dissected and weighed as a measure of muscle growth.

[2] = feeds for cattle and sheep; background statement; cited from earlier work
male leghorn chicks = assay: Feeding HMB to Poultry: growth, feed efficiency and breast muscle of chicks; format: in vivo; details: 0.04% of the diet; for Feed/gain / Breast muscle / Gain: 5 week data; for Feed/gain: control 2.30; for Breast muscle: control 2.84; for Gain: control 222; for Breast muscle, change from control / Feed/gain, change from control: ** (HMB) significant at p < .02
Experimental: as §1, §2, §3

domestic animals [3] = assay: Growth metabolism of domestic animals, HMB compared with KIC (summary statement); details: in vivo
domestic animals [4] = details: cited from earlier work
[5] = Stability of KIC or HMB in the rumen (incubation in rumen fluid); format: in vitro ADME, steer; details: for KIC or HMB in rumen fluid: 39° C.
Experimental: Rumen fluid was collected from a fistulated steer. After filtration and dilution (1:4) with an artificial saliva, 25ml of the solution was added to 50ml plastic tubes. Each tube was fitted with a one-way valve to allow gases to escape while not allowing air into the tube. Each tube was then gassed with CO2 and incubated at 39° C. After 30 min a solution of KIC or HMB was added to the tube in concentrations to simulate what would be present in the rumen of an animal consuming 0.05% of the diet as KIC or HMB. It was estimated that a 50 uM concentration would be attained in this case. At timed intervals 50 ul samples of this rumen fluid were taken and analyzed for KIC and HMB.

[6] = KIC fed as replacement for leucine; cited from earlier work
lambs [7] = assay: Feeding of HMB to Lambs--Trial 1; format: in vivo
Excerpt: Animals and Experimental Design. Three sets of twin lambs were housed individually in fiberglass pens. Animals were randomly assigned to control or HMB diets, using Ca-HMB as the feed additive at a level of 0.5% of the basal diet.
Composition of Basal Diet Fed to All Sheep.
(§4) Trace mineral & vitamin premix

lambs [8] = assay: Feeding of HMB to Lambs--Trial 2; format: in vivo
Excerpt: Animals and Experimental Design. Twenty-two lambs were housed individually in fiberglass pens (1.15 m^2) and randomly assigned to control or HMB diets. The control had nothing added to the diet while the HMB animals had 1 g of CaHMB supplemented to their diets each day. At the beginning of the experiment animals were weighed and ultrasound measurement made of the longissimus area and the amount of fat over the longissimus muscle. These measurements were made over the 12th rib area. Feed consumption was monitored. At the end of the experiment animals were weighed, feed consumption measured and the longissimus area and fat thickness measured again with the ultrasound apparatus. The gain in longissimus area and backfat were calculated from the initial value.
Composition of Basal Diet Fed to All Sheep
as §4

[9] = 0 min after addition, rumen fluid diluted 1:4 with artificial saliva, initial KIC could only be estimated
[10] = 15 min after addition, rumen fluid diluted 1:4
[11] = 30 min after addition, rumen fluid diluted 1:4
[12] = 60 min after addition, rumen fluid diluted 1:4
[13] = 240 min after addition, rumen fluid diluted 1:4
[14] = 480 min after addition, rumen fluid diluted 1:4

For `CC(C)(O)CC(=O)O` [Na-HMB], the “hygroscopicity (in words)” value [1] was “more hydroscopic than Ca-HMB”.
In the case of `CC(C)CC(=O)C(=O)O` [KIC, α-keto-isocaproic acid, reference compound], the “Red blood cell titer, change from control” value (pig red blood cells) is given as 68%, the “Red blood cell titer” value (pig red blood cells) is given as 2.65 dilution and the “rumen destruction (in words)” value [2] is given as “subject to partial rumen destruction”. For the same molecule, the Feed/gain (male leghorn chicks) was 2.24, the Breast muscle (male leghorn chicks) was 2.94% and the Gain (male leghorn chicks) was 229 g. The “Gain, change from control” value (male leghorn chicks; 5 weeks) was 3.3%, the “Breast muscle, change from control” value (male leghorn chicks; 5 weeks) was 3.5% and the “Feed/gain, change from control” value (male leghorn chicks; 5 weeks) was -2.5%. For the same molecule, the “accumulation of body fat (in words)” value (domestic animals [3]) was “slight tending for KIC to reduce the accumulation of body fat”, the “lean tissue development (in words)” value (domestic animals [3]) was “not obtainable with KIC” and the “effects on the immune system (in words)” value (domestic animals [4]; U.S. Pat. No. 4,835,185) was “some apparently beneficial effects on the immune system”. For the same molecule, the “cholesterol in meat, milk and eggs (in words)” value (domestic animals [4]; U.S. Pat. Nos. 4,760,090 and 4,760,531) was “cholesterol reduction in meat, milk and eggs”, the “consistency of beneficial effects (in words)” value (domestic animals [4]; domestic animals, particularly ruminants) was “not consistently obtainable” and the “milk production (in words)” value (domestic animals [4]; lactating domestic animals, such as dairy cattle, U.S. Pat. No. 4,758,593) was “the quantity of milk produced may be increased”. For the same molecule, the “egg production (in words)” value (domestic animals [4]; laying chickens, U.S. Pat. No. 4,760,531) was “can also sometimes be increased”, the “wool production (in words)” value (domestic animals [4]; mature sheep, U.S. Pat. No. 4,760,090) was “the amount of wool produced may also be increased” and the “rates of weight gain and/or feed efficiencies (in words)” value (domestic animals [4]; milligram amounts of KIC, U.S. Pat. Nos. 4,760,090 and 4,883,817) was “some increases in the rates of weight gain and/or feed efficiencies have been obtained”. For the same molecule, the “muscle growth (in words)” value (domestic animals [4]; previous research) was “generally has not been found to stimulate muscle growth”, the “fat deposition (in words)” value (domestic animals [4]; sheep, previous research) was “decrease fat deposition” and the “stability in rumen environment (in words)” value [5] was “rapidly destroyed by the rumen bacteria”. The “KIC or HMB in rumen fluid” value [5, 9] was 30 µM, the “KIC or HMB in rumen fluid” value [5, 10] was 15 µM and the “KIC or HMB in rumen fluid” value [5, 11] was 4 µM. For the same molecule, the “KIC or HMB in rumen fluid” value [5, 12] was 2 µM, the “KIC or HMB in rumen fluid” value [5, 13] was 2 µM and the “KIC or HMB in rumen fluid” value [5, 14] was 1 µM. The “amount of KIC required relative to nutritionally required amount of leucine” value [6] was “two to three”.
For `CC(C)(O)CC(=O)O` [HMB, β-hydroxy-β-methyl butyric acid], the “Red blood cell titer, change from control” value (pig red blood cells) was 107%, the “Red blood cell titer” value (pig red blood cells) was 3.25 dilution and the Longissimus area (lambs [7]; Ca-HMB 0.5% of the basal diet, control 2.1) was 2.3 sq. in. For the same molecule, the “Renal Fat %” value (lambs [7]; Ca-HMB 0.5% of the basal diet, control 2.42) was 1.90 % of animal live weight, the Feed/gain (lambs [7]; Ca-HMB 0.5% of the basal diet, control 3.89) was 3.60 and the “Back Fat (fat thickness over 12th rib)” value (lambs [7]; Ca-HMB 0.5% of the basal diet, control .21) was “.12 in”. For the same molecule, the Average daily gain (lambs [7]; Ca-HMB 0.5% of the basal diet, control .287) was “.296 kg/day”, the “lean tissue and fat growth (in words)” value (lambs [7]; limited study, vs controls) was “appeared to stimulate growth of lean tissues at the expense of fat” and the “% change due to HMB, Average daily gain” value (lambs [7]; vs controls) was “+3%”. The “% change due to HMB, Feed/Gain” value (lambs [7]; vs controls) was -7%, the “% change due to HMB, Longissimus area” value (lambs [7]; vs controls) was “+10%” and the “% change due to HMB, Back Fat” value (lambs [7]; vs controls, *P < 0.5) was -43%. The “% change due to HMB, Renal Fat” value (lambs [7]; vs controls, *P < 0.5) was -22%, the Feed/gain (male leghorn chicks) was 2.17 and the Breast muscle (male leghorn chicks) was 3.00%. The Gain (male leghorn chicks) was 229 g, the “Gain, change from control” value (male leghorn chicks; 5 weeks) was 3.3% and the “comparison with KIC in all parameters (in words)” value (male leghorn chicks; 5 weeks) was “superior in all parameters measured”. For the same molecule, the “performance of growing chicks (in words)” value (male leghorn chicks; 5 weeks) was “increased performance of growing chicks by increasing the rate of growth and by making more efficient use of feed for growth”, the “Breast muscle, change from control” value (male leghorn chicks; 5 weeks) was 5.5% and the “Feed/gain, change from control” value (male leghorn chicks; 5 weeks) was -5.8%. The “improving growth metabolism compared with KIC (in words)” value (domestic animals [3]) was “more effective for improving growth metabolism of domestic animals”, the “lean tissue development (in words)” value (domestic animals [3]) was “increase markedly the development of lean tissue” and the Feed/gain (lambs [8]; 1 g CaHMB per day, control 4.41) was 4.28. The Total gain (lambs [8]; 1 g CaHMB per day, lambs from 60 lbs. to 100 lbs., control 38.5) was 40.5 lbs, the Loin area gain (lambs [8]; 1 g CaHMB per day, ultrasound, control 2.08) was 3.34 cm2 and the Back fat gain (lambs [8]; 1 g CaHMB per day, ultrasound, control .27) was “.19 cm”. For the same molecule, the “% Change, Feed/gain” value (lambs [8]; vs control) was -3%, the “% Change, Total gain” value (lambs [8]; vs control) was “+6%” and the “performance and lean vs. fat gain (in words)” value (lambs [8]; vs control) was “increases preformance and increases lean vs. fat gain”. For the same molecule, the “% Change, Back fat gain” value (lambs [8]; vs control, **P < .02 level) was -30%, the “% Change, Loin area gain” value (lambs [8]; vs control, **P < .02 level) was 60% and the “stability in rumen environment (in words)” value [5] was “not being subject to appreciable rumen destruction; also recorded: not subject to significant rumen destruction; also recorded: quite stable in a rumen environment”. For the same molecule, the “KIC or HMB in rumen fluid” value [5, 9] was 60 µM, the “KIC or HMB in rumen fluid” value [5, 10] was 76 µM and the “KIC or HMB in rumen fluid” value [5, 11] was 81 µM. For the same molecule, the “KIC or HMB in rumen fluid” value [5, 12] was 71 µM, the “KIC or HMB in rumen fluid” value [5, 13] was 74 µM and the “KIC or HMB in rumen fluid” value [5, 14] was 74 µM.

— patent US5028440A, “Method of raising meat producing animals to increase lean tissue development” (Iowa State University Research Foundation, Inc., priority 1990, dated 1991)
